Among the data in US20250179083A1, “TRICYCLIC TRIAZOLO COMPOUNDS AS DGK INHIBITORS” (Incyte Corporation, priority 2023, published 2025) are IC50 values, retold here.

Each structure is given as a SMILES string.

The target in one test is T1, DGKα (Homo sapiens, UniProt P23743).
T1 construct: His; purchased Signal Chem D21-10BH
In words: In vitro DGKα inhibition assay (ADP-Glo). It counts as biochemical. The settings on record: His-tagged human recombinant DGKα 0.1 nM, 50 μM ATP, 20 μM DLG, 90 minute incubation. How it is done: (§1) The DGKα and DGKζ biochemical reactions were performed using His-tagged human recombinant enzymes (Signal Chem, DGKα, #D21-10BH; DGKζ, #D30-10H)) and DLG (Dilauroyl-sn-glycerol) lipid substrate (Signal Chem, #D430-59). ADP-Glo assay was performed using ADP-Glo™ kinase Assay kit (Promega, #V9104). The reactions were carried out in assay buffer containing 40 mM Tris, pH 7.5, 0.1% CHAPS, 0.1% Prionex, 40 mM NaCl, 5 mM MgCl2, 1 mM CaCl2, and 1 mM DTT. DGKα reactions contained 0.1 nM DGKα, 50 μM ATP, and 20 μM DLG. And DGKζ reactions contained 0.4 nM DGKζ, 30 μM ATP, and 20 μM DLG.
(§2) Compounds were added with top concentration of 2 mM with 11 point, 3-fold dilution series. Enzyme solution (contains 2×DGK enzyme concentration in 1× assay buffer) was added to the plate in 2 μL/well volume, followed by 2 μL/well of substrate solution (contains 2× concentration of ATP and DLG substrate in 1× assay buffer). Plates were then centrifuged for 1 min at 1200 RPM and sealed or lidded. For 4 μL reaction volume, test compounds were therefore diluted 100× to final top concentration of 20 μM. After 90 minute incubation, reactions were quenched by addition of 2 μL/well Promega ADP-Glo Reagent, followed by centrifugation and lidding. After 60 min incubation, 2 μL/well Promega Kinase Detection Reagent was added, plates centrifuged, and incubated for 30 min. Plates were then read using Luminescence method on BMG PHERAstar FSX plate reader. Percent inhibition was calculated and IC50s were determined using 4-parameter fit in Genedata Screener. Labcyte Echo acoustic dispenser was used for compound addition, and Formulatrix Tempest liquid handler was used for all reagent dispenses.
A general note: In ADP-Glo the light output rises with the ADP produced.

In another test the target is T2, DGKζ (Homo sapiens, UniProt Q13574).
T2 construct: His; purchased Signal Chem D30-10H
In words: In vitro DGKζ inhibition assay (ADP-Glo). The settings on record: His-tagged human recombinant DGKζ 0.4 nM, 30 μM ATP, 20 μM DLG, 90 minute incubation. The format is biochemical. The procedure: as §1, §2

T1 sequence (P23743 whole entry): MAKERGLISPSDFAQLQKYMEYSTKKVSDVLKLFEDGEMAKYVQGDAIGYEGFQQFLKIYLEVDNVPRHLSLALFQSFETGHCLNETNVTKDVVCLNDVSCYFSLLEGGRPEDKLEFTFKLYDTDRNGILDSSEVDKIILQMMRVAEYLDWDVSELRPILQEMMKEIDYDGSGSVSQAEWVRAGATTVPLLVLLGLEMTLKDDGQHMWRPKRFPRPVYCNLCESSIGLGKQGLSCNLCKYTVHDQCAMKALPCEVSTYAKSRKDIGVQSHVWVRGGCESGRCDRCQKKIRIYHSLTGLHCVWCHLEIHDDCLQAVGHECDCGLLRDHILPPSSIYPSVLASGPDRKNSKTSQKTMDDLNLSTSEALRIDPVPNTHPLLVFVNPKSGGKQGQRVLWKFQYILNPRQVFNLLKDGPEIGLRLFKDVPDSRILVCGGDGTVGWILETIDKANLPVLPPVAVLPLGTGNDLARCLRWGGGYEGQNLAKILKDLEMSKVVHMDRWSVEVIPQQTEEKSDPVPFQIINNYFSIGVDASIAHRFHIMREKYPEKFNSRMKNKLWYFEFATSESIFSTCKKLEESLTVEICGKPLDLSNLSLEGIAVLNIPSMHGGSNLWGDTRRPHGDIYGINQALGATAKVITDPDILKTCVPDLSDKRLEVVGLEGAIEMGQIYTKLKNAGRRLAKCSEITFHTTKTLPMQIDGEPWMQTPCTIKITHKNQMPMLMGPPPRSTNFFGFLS
T2 sequence (Q13574 whole entry): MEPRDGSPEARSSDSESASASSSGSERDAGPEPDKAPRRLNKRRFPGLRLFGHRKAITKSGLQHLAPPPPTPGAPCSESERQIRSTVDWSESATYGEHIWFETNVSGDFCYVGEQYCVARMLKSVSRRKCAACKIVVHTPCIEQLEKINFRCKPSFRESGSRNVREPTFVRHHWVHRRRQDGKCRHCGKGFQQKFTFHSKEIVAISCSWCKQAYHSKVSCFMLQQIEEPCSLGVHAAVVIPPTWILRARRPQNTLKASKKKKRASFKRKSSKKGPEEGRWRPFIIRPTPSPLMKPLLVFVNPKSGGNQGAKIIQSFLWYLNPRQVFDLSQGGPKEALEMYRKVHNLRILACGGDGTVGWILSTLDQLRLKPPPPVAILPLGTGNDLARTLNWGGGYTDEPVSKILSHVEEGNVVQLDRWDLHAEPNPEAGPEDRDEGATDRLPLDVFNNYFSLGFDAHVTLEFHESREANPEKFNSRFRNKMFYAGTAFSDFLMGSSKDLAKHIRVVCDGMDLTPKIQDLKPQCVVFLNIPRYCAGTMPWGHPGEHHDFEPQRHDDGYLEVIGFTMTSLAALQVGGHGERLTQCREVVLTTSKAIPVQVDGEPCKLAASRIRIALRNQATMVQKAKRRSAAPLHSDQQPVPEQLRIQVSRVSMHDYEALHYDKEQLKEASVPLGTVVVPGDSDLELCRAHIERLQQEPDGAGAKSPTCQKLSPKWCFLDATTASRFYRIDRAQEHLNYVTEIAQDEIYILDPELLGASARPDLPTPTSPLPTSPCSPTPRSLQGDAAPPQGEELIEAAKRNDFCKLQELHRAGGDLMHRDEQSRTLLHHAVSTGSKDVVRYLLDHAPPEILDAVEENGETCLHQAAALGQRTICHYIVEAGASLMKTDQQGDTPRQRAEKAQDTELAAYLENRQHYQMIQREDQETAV

`CC(C)[C@H](c1ccc2cc(C(F)(F)F)ccc2n1)N1C[C@H](C)N(c2nc3nncn3c3c2ncn3C[C@@H]2CCCO2)C[C@H]1C` [Example 84, 4-((2S,5R)-2,5-dimethyl-4-((R)-2-methyl-1-(6-(trifluoromethyl)quinolin-2-yl)propyl)piperazin-1-yl)-1-(((S)-tetrahydrofuran-2-yl)methyl)-1H-[1,2,4]triazolo[3,4-b]purine]: the IC50 at DGKα and on DGKζ was less than 20 nM in each case.

Turning to `CC[C@@H]1CN(c2nc3nncn3c3c2nc(C)n3C[C@@H]2CCCO2)[C@@H](C)CN1Cc1ccc(C(F)(F)F)cc1` [Example 36, 4-((2S,5R)-5-Ethyl-2-methyl-4-(4-(trifluoromethyl)benzyl)piperazin-1-yl)-2-methyl-1-(((S)-tetrahydrofuran-2-yl)methyl)-1H-[1,2,4]triazolo[3,4-b]purine], the IC50 at DGKα and at DGKζ was less than 20 nM in each case.

On to `Cc1nc2c(N3C[C@@H](C)N(Cc4ccc(Cl)c(Cl)c4)C[C@@H]3C)nc3nncn3c2n1C[C@@H]1CCCO1` [Example 72, 4-((2S,5R)-4-(3,4-Dichlorobenzyl)-2,5-dimethylpiperazin-1-yl)-2-methyl-1-(((S)-tetrahydrofuran-2-yl)methyl)-1H-[1,2,4]triazolo[3,4-b]purine], for which the half-maximal inhibitory concentration (IC50) at DGKα and on DGKζ was less than 20 nM in each case.

`Cc1nc2c(N3C[C@@H](C)N([C@H](c4ccc(Cl)cc4F)C(C)C)C[C@@H]3C)nc3nncn3c2n1C[C@@H]1CCCO1` [Example 28, 4-((2S,5R)-4-((S)-1-(4-Chloro-2-fluorophenyl)-2-methylpropyl)-2,5-dimethylpiperazin-1-yl)-2-methyl-1-(((S)-tetrahydrofuran-2-yl)methyl)-1H-[1,2,4]triazolo[3,4-b]purine]: the IC50 on DGKα and on DGKζ was less than 20 nM in each case.

On to `C[C@@H]1CN(c2nc3nncn3c3c2ncn3C[C@@H]2CCCO2)[C@@H](C)CN1Cc1ccc(Cl)c(F)c1` [Example 77, 4-((2S,5R)-4-(4-Chloro-3-fluorobenzyl)-2,5-dimethylpiperazin-1-yl)-1-(((S)-tetrahydrofuran-2-yl)methyl)-1H-[1,2,4]triazolo[3,4-b]purine], for which the IC50 on DGKα and on DGKζ was less than 20 nM in each case.

On to `Cc1nc2c(N3C[C@@H](C)N(C(CC(C)C)c4ccc(Cl)cc4)C[C@@H]3C)nc3nncn3c2n1C[C@@H]1CCCO1` (single isomer, unassigned) [Example 53], for which the concentration for half-maximal inhibition (IC50) at DGKα and at DGKζ was less than 20 nM in each case.

Take `CC(CC(c1ccc(Cl)c(F)c1)N1C[C@H](C)N(c2nc3nncn3c3c2ncn3C[C@@H]2CCCO2)C[C@H]1C)C(F)(F)F` (single isomer, unassigned) [Example 17]: the IC50 at DGKα and at DGKζ was less than 20 nM throughout.

Turning to `C[C@@H]1CN(c2nc3nncn3c3c2ncn3C[C@@H]2CCCO2)[C@@H](C)CN1C(c1ccc(Br)cc1)C1CC(F)(F)C1` (stereo partly drawn) [Example 33, 4-((2S,5R)-4-((4-Bromophenyl)(3,3-difluorocyclobutyl)methyl)-2,5-dimethylpiperazin-1-yl)-1-(((S)-tetrahydrofuran-2-yl)methyl)-1H-[1,2,4]triazolo[3,4-b]purine], the IC50 at DGKα and at DGKζ was less than 20 nM each time.

Consider `Cc1nc2c(N3C[C@H]4CC[C@@H](C3)N4C(c3ccc(F)cc3)c3ccc(F)cc3)nc3nncn3c2n1C[C@@H]1CCCO1` [Example 82, 4-((1R,5S)-8-(Bis(4-fluorophenyl)methyl)-3,8-diazabicyclo[3.2.1]octan-3-yl)-2-methyl-1-(((S)-tetrahydrofuran-2-yl)methyl)-1H-[1,2,4]triazolo[3,4-b]purine], for which the IC50 at DGKα and on DGKζ was less than 20 nM throughout.

As for `C[C@@H]1CN(c2cc3nncn3c3c2ncn3C[C@@H]2CCCO2)[C@@H](C)CN1C(c1ccc(Cl)cc1)[C@@H]1CC1(F)F` (single isomer, unassigned) [Example 50], the IC50 on DGKα is less than 20 nM; at DGKζ it was 20 to 200 nM.

Take `CC[C@H](c1ccc(C(F)(F)F)cc1)N1C[C@H](C)N(c2nc3nncn3c3c2nc(C)n3C[C@@H]2CCCO2)C[C@H]1C` [Example 90, 4-((2S,5R)-2,5-dimethyl-4-((R)-1-(4-(trifluoromethyl)phenyl)propyl)piperazin-1-yl)-2-methyl-1-(((S)-tetrahydrofuran-2-yl)methyl)-1H-[1,2,4]triazolo[3,4-b]purine]: the IC50 on DGKα and on DGKζ was less than 20 nM in each case.

Take `CC[C@H](c1ccc(Cl)cc1)N1C[C@H](C)N(c2nc3nncn3c3c2nc(C)n3C[C@@H]2CCCO2)C[C@H]1C` [Example 86, 4-((2S,5R)-4-((R)-1-(4-chlorophenyl)propyl)-2,5-dimethylpiperazin-1-yl)-2-methyl-1-(((S)-tetrahydrofuran-2-yl)methyl)-1H-[1,2,4]triazolo[3,4-b]purine]: the IC50 on DGKα and at DGKζ was less than 20 nM in each case.

In the case of `Cc1nc2c(N3C[C@@H](C)N(Cc4ccc(C(F)(F)F)c(F)c4)C[C@@H]3C)nc3nncn3c2n1C[C@@H]1CCCO1` [Example 75, 4-((2S,5R)-4-(3-Fluoro-4-(trifluoromethyl)benzyl)-2,5-dimethylpiperazin-1-yl)-2-methyl-1-(((S)-tetrahydrofuran-2-yl)methyl)-1H-[1,2,4]triazolo[3,4-b]purine], the half-maximal inhibitory concentration (IC50) at DGKα and at DGKζ was less than 20 nM throughout.

Consider `Cc1nc2c(N3C[C@@H](C)N(C(c4ccc(C(F)(F)F)cc4F)C4CC(F)(F)C4)C[C@@H]3C)nc3nncn3c2n1C[C@@H]1CCCO1` (stereo partly drawn) [Example 4, 4-((2S,5R)-4-((3,3-Difluorocyclobutyl)(2-fluoro-4-(trifluoromethyl)phenyl)methyl)-2,5-dimethylpiperazin-1-yl)-2-methyl-1-(((S)-tetrahydrofuran-2-yl)methyl)-1H-[1,2,4]triazolo[3,4-b]purine], for which the IC50 at DGKα and on DGKζ was less than 20 nM in each case.

On to `C[C@@H]1CN(c2nc3nncn3c3c2ncn3C[C@@H]2CCCO2)[C@@H](C)CN1C(c1ccc(C(F)(F)F)cn1)c1ccc(C(F)(F)F)cn1` [Example 19, 4-((2S,5R)-4-(Bis(5-(trifluoromethyl)pyridin-2-yl)methyl)-2,5-dimethylpiperazin-1-yl)-1-(((S)-tetrahydrofuran-2-yl)methyl)-1H-[1,2,4]triazolo[3,4-b]purine], for which the IC50 at DGKα and at DGKζ was less than 20 nM in each case.

Take `CC[C@@H]1CN(c2nc3nncn3c3c2ncn3C[C@@H]2CCCO2)[C@@H](C)CN1C(c1ccc(C(F)(F)F)cc1)C1CC(F)(F)C1` (stereo partly drawn) [Example 35, 4-((2S,5R)-4-((3,3-Difluorocyclobutyl)(4-(trifluoromethyl)phenyl)methyl)-5-ethyl-2-methylpiperazin-1-yl)-1-(((S)-tetrahydrofuran-2-yl)methyl)-1H-[1,2,4]triazolo[3,4-b]purine]: the half-inhibitory concentration (IC50) on DGKα and at DGKζ was less than 20 nM in each case.

Take `Cc1nc2c(N3C[C@@H](C)N([C@@H](c4ccc5cc(C(F)(F)F)ccc5n4)C(C)C)C[C@@H]3C)nc3nncn3c2n1C[C@@H]1CCCO1` [Example 64, 4-((2S,5R)-2,5-dimethyl-4-((R)-2-methyl-1-(6-(trifluoromethyl)quinolin-2-yl)propyl)piperazin-1-yl)-2-methyl-1-(((S)-tetrahydrofuran-2-yl)methyl)-1H-[1,2,4]triazolo[3,4-b]purine]: the 50% inhibitory concentration (IC50) on DGKα and at DGKζ was less than 20 nM in each case.

On to `CC(C)CC(c1ccc(Cl)cc1)N1C[C@H](C)N(c2cc3nncn3c3c2ncn3C[C@@H]2CCCO2)C[C@H]1C` (single isomer, unassigned) [Example 51], for which the half-inhibitory concentration (IC50) on DGKα and at DGKζ was less than 20 nM throughout.

Turning to `C[C@@H]1CN(c2nc3nncn3c3c2ncn3C[C@@H]2CCCO2)[C@@H](C)CN1Cc1ccc(C(F)(F)F)cc1F` [Example 38, 4-((2S,5R)-4-(2-Fluoro-4-(trifluoromethyl)benzyl)-2,5-dimethylpiperazin-1-yl)-1-(((S)-tetrahydrofuran-2-yl)methyl)-1H-[1,2,4]triazolo[3,4-b]purine], the IC50 on DGKα and at DGKζ was less than 20 nM each time.

Take `Cc1nc2c(N3C[C@@H](C)N(C(c4ccc(Cl)c(F)c4F)C4CC(F)(F)C4)C[C@@H]3C)nc3nncn3c2n1C[C@@H]1CCCO1` (stereo partly drawn) [Example 80, 4-((2S,5R)-4-((4-Chloro-2,3-difluorophenyl)(3,3-difluorocyclobutyl)methyl)-2,5-dimethylpiperazin-1-yl)-2-methyl-1-(((S)-tetrahydrofuran-2-yl)methyl)-1H-[1,2,4]triazolo[3,4-b]purine]: the IC50 on DGKα and on DGKζ was less than 20 nM each time.

As for `Cc1nc2c(N3C[C@@H](C)N(C(c4ccc(Cl)cc4)C4CC(F)(F)C4)C[C@@H]3C)cc3nncn3c2n1C[C@@H]1CCCO1` (single isomer, unassigned) [Example 62], the IC50 at DGKα and on DGKζ was less than 20 nM each time.

A word on the IC50: it is the point on the concentration scale where inhibition reaches its midpoint.
